From patent publication US20020073447A1, “Acquired resistance genes and uses thereof” (priority 1996, published 2002)

What was measured:
[1] = molecular target: T1, NPR1-GFP (Arabidopsis thaliana, UniProt P93002); assay: Subcellular localization of NPR1-GFP by confocal microscopy; assay type: in vivo; details: 35S-NPR1-GFP eleven-day-old seedlings grown on MS with SA or INA
T1 construct: expressed in transfected cells; host or cells: Transgenic Arabidopsis npr1-1 and npr1-2 mutant plants (seedlings; leaf mesophyll and guard cells), CaMV 35S promoter
T1 sequence (P93002 1-593): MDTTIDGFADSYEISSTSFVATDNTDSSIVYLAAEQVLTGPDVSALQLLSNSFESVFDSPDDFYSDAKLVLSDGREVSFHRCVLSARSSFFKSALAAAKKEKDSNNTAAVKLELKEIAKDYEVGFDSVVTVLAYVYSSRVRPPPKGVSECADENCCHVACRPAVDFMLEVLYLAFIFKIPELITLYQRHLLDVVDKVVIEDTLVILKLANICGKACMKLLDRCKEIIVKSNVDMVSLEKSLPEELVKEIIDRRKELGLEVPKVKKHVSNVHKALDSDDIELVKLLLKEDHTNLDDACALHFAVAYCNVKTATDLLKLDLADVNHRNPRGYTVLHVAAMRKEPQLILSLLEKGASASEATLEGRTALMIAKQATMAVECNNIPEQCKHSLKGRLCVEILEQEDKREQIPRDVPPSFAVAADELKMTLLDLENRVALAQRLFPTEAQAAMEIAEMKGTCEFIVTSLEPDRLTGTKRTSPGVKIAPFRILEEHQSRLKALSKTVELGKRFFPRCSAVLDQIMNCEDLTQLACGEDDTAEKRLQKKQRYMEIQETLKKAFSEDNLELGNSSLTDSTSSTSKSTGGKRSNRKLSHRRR
Procedure: To elucidate the induction mechanism and the molecular function of the protein, the subcellular localization of NPR1 was determined by using standard reporter gene fusion construct analysis. The green fluorescent protein (GFP) gene was fused to the carboxyl end of the NPR1 cDNA driven by the constitutive CaMV 35S promoter, and the 35S-NPR1-GFP construct was used to transform npr1 mutants, npr1-1 and npr1-2, according to standard methods.
To examine the subcellular localization of the NPR1 protein, the 35S-NPR1-GFP and 35S-mGFP transgenic lines were grown in MS medium in the presence or absence of the SAR-inducing chemicals SA or INA. Eleven-day-old seedlings were subsequently examined using confocal microscopy to detect localization of NPR1-GFP and mGFP. […] In the 35S-mGFP transformants, green fluorescence was detected in the cytoplasm as well as in the nuclei, and SA and INA treatments had no effect on the localization of the protein. […] In the guard cells, the NPR1 protein was localized in the nuclei even without an SAR induction, an intriguing observation because constitutive activation of defense mechanisms in these cells may be necessary to fend off microbial pathogens from gaining entry into the plant through stomata. […] Consistent with this, the following two potential nuclear localization sequences (NLS's) were found in NPR1: […]

[2] = test system: Pseudomonas syringae pv maculicola ES4326; assay: Growth of P.s. maculicola ES4326 in SA-/INA-pretreated plants; assay type: in vivo; details: for growth of P.s. maculicola ES4326 lower than the untreated control / growth of P.s. maculicola ES4326: wild-type plants treated two days before infection; for growth of P.s. maculicola ES4326: 0 to 3.0 days after infiltration
[3] = test system: BGL2-GUS reporter gene; assay: Quantitative GUS assay of BGL2-GUS reporter plants grown on SA or INA; assay type: in vivo, Arabidopsis thaliana; details: 0.5 mM SA, 0.1 mM INA
Procedure: The M2 seeds were germinated on MS medium with the addition of 0.8% agar, 0.5 mg/mL Mes (2-(N-morpholino)ethane-sulfonic acid), pH 5.7, 2% sucrose, 50 μg/mL kanamycin, and 100 μg/mL ampicillin. […] After incubation for fifteen days, each seedling to be assayed was numbered, and a single leaf was then removed from each seedling and put into the corresponding sample well of a ninety-six-well microtiter plate that contained 100 μL of […] (GUS) substrate solution (50 mM Na2HPO4, pH 7.0, 10 mM Na2EDTA, 0.1% Triton X-100, 0.1% sarkosyl, 0.7 μL/mL β-mercaptoethanol, and 0.7 mg/mL 4-methylumbelliferyl β-D-glucuronide). After all the samples were collected, the microtiter plate was placed under vacuum for two minutes to infiltrate the samples and then incubated at 37° C. overnight. Samples were examined for the fluorescent product of GUS activity (4-methylumbellifone) using a long-wavelength UV light. […] This procedure was repeated in the progeny of these putative mutants to ensure that the mutant phenotype was heritable and to identify the homozygous mutants.
To measure accurately the level of GUS activity, a quantitative GUS assay was performed on npr1-1 plants and the wild-type BGL2-GUS plants grown in the presence of either SA or INA, or in the absence of both. In the absence of an inducer, the background level of GUS activity was five-fold lower in the npr1-1 mutant than in the wild-type. […] Moreover, the induction by 0.1 mM INA was forty-eight-fold for the wild-type versus five-fold for npr1-1. Thus, while GUS activity in the SA- or INA-treated npr1-1 plants was somewhat induced, the activity was at most only slightly higher than the background level of the untreated wild-type.

[4] = test system: Pseudomonas syringae pv maculicola ES4326; assay: SA-/INA-induced protection against P.s. maculicola ES4326 infection (disease symptoms); assay type: in vivo; details: 1 mM SA or 0.65 mM INA two days before P.s. maculicola ES4326; for plants with chlorotic lesions: npr1-1 plants; for plants showing slight yellowing: wild-type plants
Procedure: To examine whether the lack of SA- or INA-induced PR gene expression would affect SAR protection against a virulent pathogen infection, fifteen-day-old wild-type and npr1-1 plants were treated with either 1 mM SA or 0.65 mM INA, and two days later were exposed to a P.s. maculicola ES4326 bacterial suspension. […] Chlorotic lesions developed in about ninety percent of the untreated wild-type control plants not pretreated with SA or INA. However, such SA- or INA-induced protection was not observed in npr1-1 mutant plants. Chlorotic lesions were clearly seen in over ninety-percent of untreated and at least eighty-percent of SA- or INA-treated plants. The symptoms on npr1-1 were also more severe than on the wild-type plants.

[5] = test system: PR1 gene; assay: RNA blot analysis of PR1 induction; assay type: in vivo, Arabidopsis thaliana; details: leaves in 0.5 mM INA for twenty-four hours, or SA
Procedure: Transformants of npr1-2 were grown (22° C. in fourteen hours of light) and selected on MS medium agar (Murashige and Skoog, Physiol Plant. 15:473-497, 1962) containing 2% sucrose, 50 μg/mL kanamycin, and 100 μg/mL ampicillin. Kanamycin-resistant transformants which developed true leaves and healthy roots were transplanted to soil. After two weeks of growth in soil at 22° C. in fourteen hours of light per day, leaves were collected from three transformants of each cosmid clone and soaked in 0.5 mM INA solution for twenty-four hours at 22° C. in fourteen hours of light per day. Leaf tissues were then collected and frozen in liquid nitrogen. Total RNA was extracted from these leaf tissues, and an RNA blot was prepared as described by Cao et al. (Plant Cell 6:1583-1592, 1994). The blot was probed with a PR1-specific probe (a PCR product obtained by amplifying genomic Arabidopsis DNA with PR1-specific primers (sense primer 5′ […]3′ (SEQ ID NO: 19); anti-sense primer 5′ […]3′ (SEQ ID NO: 20)).
These variations were likely to be the result of “position-effects,” the effect of the insertion site in the chromosome on the expression of the transgene. Cosmid clones 21A4-4-3-1, 21A4-6-1-1, 21A4-P5-1, and 21A4-2-1 restored the ability of the npr1-2 mutant to respond to INA induction and, therefore, complemented the npr1-2 mutation.
Transformants carrying each cosmid were also tested for SA induction of PR1 expression by RNA blot analysis Examples of SA induction are shown in FIG. 2A.

[6] = test system: Arabidopsis thaliana; assay: Plant tolerance to SA or INA treatment (growth, symptoms); assay type: in vivo; details: wild-type and npr1-1 plants; 1 mM SA, 0.65 mM INA

Structure (SMILES) | localization of NPR1-GFP upon induction [1] | decrease in Psm ES4326 growth ([2]; npr1-2 mutant, 0.65 mM INA seventy-two hours prior to infection) [fold] | growth of P.s. maculicola ES4326 lower than the untreated control [2] [times] | growth of P.s. maculicola ES4326 [2] | inhibition of Psm ES4326 growth ([2]; wild-type plants, 0.65 mM INA seventy-two hours prior to infection (OD600=0.001)) | increase in GUS activity compared to the uninduced plants ([3]; npr1-1 plants) | increase in GUS activity compared to the uninduced plants ([3]; wild-type BGL2-GUS plants) | plants with chlorotic lesions [4] | plants showing slight yellowing [4] | induction of PR1 gene expression ([5]; npr1-2 mutant) | induction of PR1 gene expression ([5]; wild-type parental line) | effect of treatment alone on plants (no infection) [6]
O=C(O)c1cc(Cl)nc(Cl)c1 [INA, 2,6-dichloroisonicotinic acid] | exclusively in the nuclei of both the mesophyll cells and the guard cells | ~10 | 1000 | about ten | Complete inhibition | five | forty-eight | at least eighty | less than ten | no induction | induction | minimal effect
O=C(O)c1ccccc1O [SA, salicylic acid] | exclusively in the nuclei of both the mesophyll cells and the guard cells | – | 1000 | about ten | – | seven | fifty-two | at least eighty | less than ten | only a minor induction | high level of PR1 gene induction | minimal effect
